According to patent US10034836B2, “Formulations of guanylate cyclase C agonists and methods of use” (SYNERGY PHARMACEUTICALS, INC., priority 2008, dated 2018):

Assays:
mice treated with TNBS = experiment: Stool consistency in TNBS-induced murine model of colitis; assay type: in vivo; conditions: oral administration (FIG. 13)
Description: The anal administration of trinitrobenzene sulphonic acid (TNBS) is typically used to produce intestinal blockage, resulting in poor stool consistency.

BDF1 mice = experiment: DSS-induced colitis in BDF-1 mice; assay type: in vivo; conditions: 5% DSS, 80 mg/kg oral gavage daily (positive control)
Method: The cGMP pathway mediates the anti-inflammatory effects of cellular molecules such as nitric oxide and heme oxygenase-1. […] The anti-inflammatory effects of the GCC agonist SP-304 were evaluated in a murine model of ulcerative colitis, the DSS-induced colitis model.
Forty eight BDF1 mice were divided into 8 treatment groups (6 mice/group). One group was not exposed to DSS (untreated control) and groups […] were treated with 5% DSS in the drinking water. DSS was refreshed daily. All mice were weighed on day −1, and treated with the test materials beginning on day −1. 4 hrs post dosing on Day 0, DSS was placed in the drinking water of groups 2-8 and DSS remained in the water until the end of the study. The test agents were administered at 9 AM daily until day 7. Animals were treated with a single dose of test agents and the groups were as follows:
All doses were administered by oral gavage using a 0.1 ml dose per 10 g body weight. To avoid cage-to-cage variation, different treatment groups were housed in the same cage and animals were ear punched for identification purposes. Mice were sacrificed on day 7, 4-6 hrs post last dosing. […] All slides were scored in a blinded manner.
Five different sections of the tissue were examined for histopathological scoring and the scores were averaged for each mouse. The histopathology scores in FIG. 17 are expressed as an average of 6 mice.

Structure (SMILES): O=C(O)c1cc(/N=N/c2ccc(S(=O)(=O)Nc3ccccn3)cc2)ccc1O [Sulfasalazine]
- stool consistency in mice treated with TNBS (mice treated with TNBS): restored normal stool consistency
- severity of inflammation in large intestine (histopathology score) (BDF1 mice): considerably reduced
